The values below come from patent US12351648B2, “Methods of inhibiting MASP-2 for the treatment and/or prevention of coronavirus-induced acute respiratory distress syndrome” (priority 2020, dated 2025).

Like-named read-outs stand apart in the source and are kept apart here. Non-standard residues stand in square brackets, D forms with d. Residues, ends and D or L forms follow the SMILES beside them. *: point of attachment. dChg = N[C@@H](C(=O)O)C1CCCCC1; Agmatine = N=C(N)NCCCCN*; Aze = O=C(O)[C@@H]1CCN1

Assay [1] concerns the target MASP-2 (CCP1-CCP2-SP) (Homo sapiens (Human), UniProt O00187). In words: Enzymatic assay for MASP-2 (fluorogenic substrate). The format is biochemical. The note with it: for MASP-2 vs. thrombin selectivity: MASP-2 inhibition versus thrombin.
For assay [2], the target named is human α-thrombin (Homo sapiens (Human), UniProt P00734). Put plainly: Enzymatic assay for thrombin (Boc-VPR-AMC). It counts as biochemical.
For assay [3], the system named is lectin pathway. Put plainly: Lectin pathway activation assay in 1% human serum (C3 deposition on mannan, ELISA). It counts as biochemical.
In assay [4] the target is T1, mMASP-2 (Mus musculus (Mouse), UniProt Q91WP0). In words: Enzymatic assay for mMASP-2 (Ki). It counts as biochemical.
T1 sequence (Q91WP0 20-685): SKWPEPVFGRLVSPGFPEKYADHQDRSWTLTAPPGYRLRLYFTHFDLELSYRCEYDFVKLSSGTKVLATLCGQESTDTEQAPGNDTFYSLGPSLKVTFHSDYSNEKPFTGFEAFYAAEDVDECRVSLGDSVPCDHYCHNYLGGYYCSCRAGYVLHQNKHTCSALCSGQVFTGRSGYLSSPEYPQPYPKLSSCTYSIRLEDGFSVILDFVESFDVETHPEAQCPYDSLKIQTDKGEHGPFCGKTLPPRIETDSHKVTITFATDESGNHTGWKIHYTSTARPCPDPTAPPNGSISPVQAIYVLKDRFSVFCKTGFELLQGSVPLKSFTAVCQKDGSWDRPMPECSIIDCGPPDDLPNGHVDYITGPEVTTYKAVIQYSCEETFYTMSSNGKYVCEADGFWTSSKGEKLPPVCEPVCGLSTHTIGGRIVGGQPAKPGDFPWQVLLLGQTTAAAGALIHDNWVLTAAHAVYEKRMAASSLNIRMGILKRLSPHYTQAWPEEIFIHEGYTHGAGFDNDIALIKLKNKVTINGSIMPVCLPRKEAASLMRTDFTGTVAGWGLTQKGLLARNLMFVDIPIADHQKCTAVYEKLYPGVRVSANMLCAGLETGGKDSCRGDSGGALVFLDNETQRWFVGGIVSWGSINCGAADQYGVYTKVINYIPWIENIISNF
Assay [5] addresses T1, mMASP-2. Put plainly: Enzymatic assay for mMASP-2 (Ki). It counts as biochemical. The source holds these as a separate data set.
The subject of assay [6] is COVID-19 patients. The note with it: cited from earlier work; for 28-day mortality: […] with usual care.
The mark [7] stands for this setting: Thrombin Ki, human α-thrombin, Boc-VPR-AMC.
Where [8] appears, read: human α-thrombin, Boc-VPR-AMC, read-out: Thrombin Ki.
Setting [9] is: oxygen support without invasive mechanical ventilation.

MASP-2 (CCP1-CCP2-SP), sequence (O00187 287-686): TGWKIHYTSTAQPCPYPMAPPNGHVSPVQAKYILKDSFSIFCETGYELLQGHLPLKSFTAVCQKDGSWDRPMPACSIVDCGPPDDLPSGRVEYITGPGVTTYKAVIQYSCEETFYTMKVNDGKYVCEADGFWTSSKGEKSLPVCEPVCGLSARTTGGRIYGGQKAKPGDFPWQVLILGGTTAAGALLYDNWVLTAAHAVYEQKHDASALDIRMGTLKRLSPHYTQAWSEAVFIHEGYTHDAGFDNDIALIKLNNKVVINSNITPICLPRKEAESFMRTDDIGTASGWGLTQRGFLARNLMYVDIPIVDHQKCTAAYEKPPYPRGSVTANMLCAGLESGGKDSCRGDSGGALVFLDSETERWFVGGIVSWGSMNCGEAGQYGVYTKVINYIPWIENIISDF

Consider `N=C(N)NCCCCNC(=O)[C@@H]1CCN1C(=O)[C@H](N)C1CCCCC1` [Compound 1006] (H-[dChg]-[Aze]-Agmatine), for which the “MASP-2 vs. thrombin selectivity” value in assay [1] was “— (less than 1.0-fold)”.
As a reminder, the Ki is the equilibrium dissociation constant of an inhibitor or competing ligand from its target. For orientation: IC50 means the midpoint of a concentration-inhibition curve. Turning to `C[C@H](NC(=O)C1CC(c2ccccc2)CCN1)C(=O)NCc1ccc(N)nc1` (stereo partly drawn) [Compound 1025], in assay [2] (setting [7]), the Ki is > 25 µM. Moreover, the IC50 in assay [3] (read-out: Lectin Pathway IC50) lay within 500 to 5000 nM.
Regarding `N=C(N)c1ccc(CNC(=O)[C@@H]2CCCN2C(=O)[C@H](N)C2CCCCC2)cc1` [Compound 1027], the “MASP-2 vs. thrombin selectivity” value in assay [1] is reported as “— (less than 1.0-fold)”.
For `C[C@H](NC(=O)[C@H](N)CCc1ccccc1)C(=O)NCc1ccc2nc(N)[nH]c2c1` [Compound 1040], the Ki in assay [4] is < 500 nM; in assay [2] (setting [7]), > 25 µM; in assay [1] (read-out: MASP-2 Ki), < 0.5 µM. In addition, the IC50 in assay [3] (read-out: Lectin Pathway IC50) lay in the range of 500 to 5000 nM. Also, the “MASP-2 vs. thrombin selectivity” value in assay [1] is reported as “**** (>100-fold)”.
For the compound `C[C@H](NC(=O)[C@H](N)CCc1ccc(F)cc1)C(=O)NCc1ccc(C(=N)N)cc1` [Compound 1047], the Ki in assay [2] (setting [8]) was < 2.5 µM.
Consider `C[C@H](NC(=O)C1CC(c2ccccc2)CCN1)C(=O)NCc1ccc(C(=N)N)cc1` (stereo partly drawn) [Compound 1065], for which, in assay [4], the Ki is < 500 nM. For the same compound, the IC50 in assay [3] (read-out: Lectin Pathway IC50) was < 50 nM.
As to `C[C@H](NC(=O)[C@@H](CCc1ccccc1)NC1CCCCC1)C(=O)NCc1ccc(C(=N)N)cc1` [Compound 1130], the “MASP-2 vs. thrombin selectivity” value in assay [1] is listed as “— (less than 1.0-fold)”.
Regarding `C[C@H](NC(=O)[C@@H](CCc1ccccc1)NCc1ccc(O)cc1)C(=O)NCc1ccc(C(=N)N)cc1` [Compound 1140], the “MASP-2 vs. thrombin selectivity” value in assay [1] is “— (less than 1.0-fold)”.
With `C[C@H](NC(=O)[C@@H](CCc1ccccc1)NCc1ccc(F)cc1)C(=O)NCc1ccc(C(=N)N)cc1` [Compound 1141], the Ki in assay [2] (setting [8]) and in assay [1] (read-out: MASP-2 Ki) was < 0.5 µM each time. Besides, the “MASP-2 vs. thrombin selectivity” value in assay [1] is “— (less than 1.0-fold)”.
Regarding `COC(=O)CCCCCN[C@H](CCc1ccccc1)C(=O)N[C@@H](C)C(=O)NCc1ccc(C(=N)N)cc1` [Compound 1142], the Ki in assay [2] (setting [8]) and in assay [1] (read-out: MASP-2 Ki) was < 0.5 µM throughout. Besides, the “MASP-2 vs. thrombin selectivity” value in assay [1] is on record as “* (1.0 to 5.0-fold)”.
In the case of `C[C@H](NC(=O)[C@@H](CCc1ccccc1)NCc1cc2ccccc2[nH]1)C(=O)NCc1ccc(C(=N)N)cc1` [Compound 1143], the results for the Ki in assay [4], in assay [2] (setting [8]) and in assay [1] (read-out: MASP-2 Ki) were < 500 nM, < 0.5 µM and < 0.5 µM, respectively. The “MASP-2 vs. thrombin selectivity” value in assay [1] was “— (less than 1.0-fold)”.
Consider `C[C@H](NC(=O)[C@H]1CCc2ccccc2N1)C(=O)NCc1ccc(C(=N)N)cc1` [Compound 1215], for which the Ki in assay [4] was < 25000 nM.
Consider `C[C@H](NC(=O)[C@H](N)CCc1ccccc1)C(=O)NCc1ccc(C(=N)N)cc1` [Compound 1218], for which, in assay [1], the “MASP-2 vs. thrombin selectivity” value was “— (less than 1.0-fold)”.
With `CCOC(=O)COc1ccc(Cl)cc1CNC(=O)[C@H](C)NC(=O)[C@H](N)CCc1ccccc1` [Compound 1229], the Ki in assay [2] (setting [8]) was < 10 µM.
Turning to `CCCCOC(=O)NC(=N)c1ccc(CNC(=O)[C@H](C)NC(=O)[C@H]2C[C@H](c3ccccc3)CN2)cc1` [Compound 1260], the Ki is > 25 µM in assay [2] (Thrombin Ki (μM)) and 2.5 to 10 µM in assay [1] (MASP-2 Ki (μM)).
Take `CC[C@H](NC(=O)[C@H](N)CCc1ccccc1)C(=O)NCc1ccc(C(=N)N)cc1` [Compound 1289]: the “MASP-2 vs. thrombin selectivity” value in assay [1] was “— (<1.0-fold)”.
As to `C[C@H](NC(=O)[C@H](N)CCc1ccccc1)C(=O)NCc1cc(Cl)ccc1-n1cnnn1` [Compound 1325], the “MASP-2 vs. thrombin selectivity” value in assay [1] is listed as “— (<1.0-fold)”.
Still for that read-out and setting: then `C[C@H](NC(=O)[C@H]1C[C@H](Cc2ccccc2)CN1)C(=O)NCc1cnc2[nH]cc(Cl)c2c1` [Compound 1334], with “— (<1.0-fold)”.
Still for that read-out and setting: then `Cc1nc(N)ccc1CNC(=O)[C@H](C)NC(=O)[C@H]1C[C@H](Cc2ccc3ccccc3c2)CN1` [Compound 1338], with “*** (≥25 to <100-fold)”.
Consider `Cc1nc(N)ccc1CNC(=O)[C@@H](C)NC(=O)[C@H]1C[C@H](c2cccc(-c3ccccc3)c2)CN1` [Compound 1359], for which the Ki was > 25 µM in assay [2] (Thrombin Ki (μM)) and 10000 to 25000 nM in assay [5].
For the compound `Cc1nc(N)ccc1CNC(=O)[C@H](C)NC(=O)[C@H]1C[C@H](c2cccc(-c3ccccc3)c2)CN1` [Compound 1360], the results for the Ki in assay [2] (Thrombin Ki (μM)) and in assay [5] were > 25 µM and < 500 nM, respectively. Besides, the IC50 in assay [3] (read-out: Lectin Pathway IC50) lay in the range of 50 to 500 nM.
On to `Cc1nc(N)ccc1CNC(=O)[C@H](C)NC(=O)[C@H]1C[C@@H](c2ccccc2)CCN1CC(=O)O` [Compound 1398], for which the Ki in assay [5] is < 500 nM.
For the compound `C[C@H](NC(=O)[C@H]1C[C@H](Cc2cccc3ccccc23)CN1)C(=O)NCc1cc(Cl)ccc1-n1cnnn1` [Compound 1414], the “MASP-2 vs. thrombin selectivity” value in assay [1] is on record as “— (<1.0-fold)”.
Regarding `Cc1nc(N)ccc1CNC(=O)[C@H](C)NC(=O)[C@H]1CC(Cc2ccc(F)cc2)(Cc2ccc(F)cc2)CN1` [Compound 1480], the Ki in assay [5] is < 500 nM.
For `N=C(N)c1ccc2[nH]c(Cc3nc4ccccc4[nH]3)nc2c1` [Compound 2015], in assay [1] (MASP-2 Ki (μM), −Zn), the Ki is < 10 µM.
For the compound `N=C(N)c1ccc(CNC(=O)Cn2c(=O)n(Cc3ccccc3)c(=O)c3ccc(C(=O)NC4CCCCC4)cc32)cc1` [Compound 2021], the IC50 in assay [3] (read-out: Lectin Ki (Lectin Pathway Inhibition, IC50)) was 5000 to 50000 nM.
`C[C@@H]1C[C@H]2[C@@H]3CCC4=CC(=O)C=C[C@]4(C)[C@@]3(F)[C@@H](O)C[C@]2(C)[C@@]1(O)C(=O)CO` [dexamethasone]: the 28-day mortality in assay [6] (invasive mechanical ventilation) is reported as 29.0%; in assay [6] (no respiratory support at randomization), 17.0%; in assay [6] (setting [9]), 21.5%. The “Reduction of 28-day mortality” value in assay [6] (setting [9]) is reported as 14%; in assay [6] (patients on invasive mechanical ventilation), 28.7%.
